This is an account of results in patent US9168269B2, “Inhibitors of long and very long chain fatty acid metabolism as broad spectrum anti-virals” (THE TRUSTEES OF PRINCETON UNIVERSITY, priority 2010, dated 2015).

The structures appear in SMILES notation. Values joined by “and” are separate entries in the source; they are usually repeats but may differ in a detail not shown here. Equal values may be shown once. Read-outs that look alike come from different tables or passages of the source.

Series [1] has as its target hELOVL3 (Homo sapiens, UniProt Q9HB03). To be noted: in vitro; cited from earlier work.
Series [2] has as its system late viral protein pUL99. As to the kind of experiment: HCMV late viral protein expression (pUL99-GFP). Format: cell-based, human cytomegalovirus.
For series [3], the system named is MRCS human fibroblasts. As to the kind of experiment: host cell viability, morphology and toxicity in fibroblasts. The note with it: at the antiviral doses tested.
Experimental: (§1) Top panels: About 90% confluent MRCS human fibroblasts were treated with the indicated concentrations of triacsin C or the carrier in which the drug was dissolved (DMSO) in the presence of 10% fetal calf serum and photographed 96 h later. Bottom left panel: About 90% confluent MRCS fibroblasts were either mock infected or infected with the AD169 strain of HCMV at a multiplicity of (0.1 pfu/cell). The uninfected or infected cells received DMSO (solvent for the drug) or the drug for 96 h before cells were assayed for viability. Bottom right panel: About 90% confluent MRCS fibroblasts were infected with HCMV at a multiplicity of (0.1 pfu/cell) in the presence of DMSO (0 nM triacsin C) or triacsin C at the indicated concentrations. Infected fibroblasts were maintained in medium containing 10% fetal calf serum. Virus yield in the medium at 96 h after infection was determined by infecting fibrobalsts and assaying IE1 expression by immunofluorescence 24 h later. 96 h after infection, cells were harvested into culture medium and sonicated to release cell-associated virus. Virus yield in the medium was determined by infecting fibroblasts and assaying IE1 expression by immunofluorescence 24 h later.
(§2) The effect of triacsin C on the viability of MRCS human fibroblasts in culture medium containing 10% fetal calf serum was tested. At the time drug was added, cells were about 90% confluent.
Series [4] deals with HCMV AD169 strain. Kind of series: microbe, parasite or virus in culture. Format: cell-based, human cytomegalovirus.
Series [5] has as its system ELOVL3. To be noted: 'in vivo' as printed; cited from earlier work.
Series [6] concerns ELOVL6. To be noted: 'in vivo' as printed; cited from earlier work.
Series [7] has as its system host cell.
In series [8] the test system is HCMV. As to the kind of experiment: proposed combination of TOFA and triacsin C, virus replication. Format: cell-based, human cytomegalovirus. To be noted: for magnitude of the therapeutic effect: 10 μg/mL TOFA.
The subject of series [9] is influenza A. The class given is cell-based. To be noted: for magnitude of the therapeutic effect: 10 μg/mL TOFA.
Series [10] concerns HIV-1. As to the kind of experiment: proposed combination of TOFA and enfurtivide, HIV-1-infected C8166 cells. The class given is cell-based. The note with it: for magnitude of the therapeutic effect: 10 μg/mL TOFA. An excerpt: Non-limiting examples of assays that could be performed to assess the effect of a combination of an ACC inhibitor and an entry inhibitor on HIV-1 replication follow. Assays for TOFA-mediated antiviral activity using HIV-1-infected C8166 cells have been described in (WO 2009/023059). In each assay, various concentrations of TOFA can be combined with various concentrations of enfurtivide and assayed for their effect on virus replication. In one preferred embodiment, a physiological concentration of enfurtivide is held constant as the dose of TOFA is increased. Control cultures are treated with no drug, enfurtivide alone or the various concentrations of TOFA alone. Samples are taken at 24, 48, 72 and 96 hours after initiation of drug treatment. The antiviral effect of enfurtivide plus each concentration of TOFA is then compared to the activity of enfurtivide alone or the various concentrations of TOFA alone. Uptake of neutral red dye is used to determine the relative level of toxicity in duplicate cultures at each time a sample is harvested. […] At 10 μg/mL of TOFA, the magnitude of the therapeutic effect is increased from ^˜10-fold in the absence of enfurtivide to ^˜100-fold in its presence. […] Similar results are obtained for other entry inhibitors.

The test system of series [11] is viral growth and/or replication. Kind of series: proposed combination of TOFA and ELOVL inhibitor, virus replication. To be noted: presence of a therapeutically effective concentration of ELOVL inhibitor. The class given is cell-based.
The subject of series [12] is HCV JFH1 strain derivative. Kind of series: release of infectious HCV from Huh7.5 cells, TCID50 assay.
Experimental: Huh7.5 cells were infected with a derivative of HCV JFH1 strain (MOI=0.1 TCID50/cell). Infected cells were maintained in medium containing 10% fetal calf serum plus DMSO (0 nM triacsin C) or triacsin C at the indicated concentrations. Media were harvested at 72 h and infectious virus was quantified by standard TCID50 assay on Huh7.5 cells.
Virus yield in the medium at 72 h after infection was determined.
Huh7.5 cells were infected a derivative of HCV JFH1 strain (MOI=0.1 TCID50/cell) Infected cells were maintained in medium containing 10% fetal calf serum plus DMSO (0 μg/ml TOFA) or TOFA at the indicated doses. Media were harvested at 72 h and infectious virus was quantified by standard TCID50 assay on Huh7.5 cells.
Huh7.5 cells which was infected with HCV and treated with indicated amounts of TOFA (FIG. 21).
The subject of series [13] is MRCS human fibroblasts.
Experimental: as §1, §2
For series [14], the target named is T1, hELOVL6 (Homo sapiens, UniProt Q9H5J4).
T1 sequence (Q9H5J4 1-265): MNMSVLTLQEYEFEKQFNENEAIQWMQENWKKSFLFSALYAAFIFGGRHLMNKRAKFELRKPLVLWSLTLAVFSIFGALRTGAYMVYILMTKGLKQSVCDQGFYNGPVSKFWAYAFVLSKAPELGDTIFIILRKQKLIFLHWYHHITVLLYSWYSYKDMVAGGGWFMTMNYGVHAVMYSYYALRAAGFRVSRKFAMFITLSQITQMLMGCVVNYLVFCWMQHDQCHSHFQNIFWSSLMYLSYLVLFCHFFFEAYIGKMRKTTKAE
To be noted: in vitro; read-out: hELOVL6 IC50; cited from earlier work.

hELOVL3, sequence (Q9HB03 whole entry): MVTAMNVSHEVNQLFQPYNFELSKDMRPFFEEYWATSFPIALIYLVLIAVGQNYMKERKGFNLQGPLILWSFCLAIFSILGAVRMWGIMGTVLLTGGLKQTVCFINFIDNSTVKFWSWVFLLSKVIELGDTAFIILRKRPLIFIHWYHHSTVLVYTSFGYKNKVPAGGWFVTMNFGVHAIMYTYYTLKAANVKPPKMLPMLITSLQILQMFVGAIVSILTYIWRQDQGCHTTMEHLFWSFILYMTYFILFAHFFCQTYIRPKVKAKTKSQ

Broadly, the IC50 is the concentration needed to halve the response being measured. With `O=C1Nc2ccc(-c3ccn[nH]3)cc2[C@](CNC(=O)c2ccc(F)cc2)(C(F)(F)F)O1` [(S)-1y], the half-inhibitory concentration (IC50) was around 130 nM in series [1], above 5 µM in series [5] and 169 nM in series [6]. Also, the “HCMV late pUL99 expression, in words” value in series [2] was “dramatically reduced”. Besides, in [3], the “toxicity on the cells” value is reported as “Without inducing any toxicity”. In addition, the results for the “inhibition of HCMV replication” value in [4] (25 μM) and in series [4] (50 μM) were around 40 fold and above 1000 fold, respectively.
In the case of `CCCCCCCCCCCCCCOc1ccc(C(=O)O)o1` [TOFA], the “host cell toxicity, neutral red dye assay” value in series [7] (combined use of TOFA and enfurtivide) is given as “does not increase host cell toxicity”; in series [7] (combined use of TOFA and oseltamivir), “does not increase host cell toxicity”; in [7] (combined use of TOFA and triacsin C), “does not increase host cell toxicity”. Besides, in [8], the “concentration of TOFA required to produce a 10-fold reduction in HCMV replication” value was ~10 μg/mL and < 5 μg/mL. The “magnitude of the therapeutic effect” value in series [8] (absence of triacsin C) was around 10 fold; in [8] (presence of triacsin C) it was around 100 fold; in [9] (absence of oseltamivir), around 10 fold; in [9] (presence of oseltamivir) it was around 100 fold; in [10] (absence of enfurtivide), around 10 fold; in series [10] (presence of enfurtivide), around 100 fold. Moreover, the “concentration of TOFA required to produce a 10-fold reduction in influenza A replication” value in series [9] (TOFA alone) is on record as around 10 μg/mL; in series [9] (presence of a pharmacologically acceptable concentration of oseltamivir), below 5 μg/mL. The “concentration of TOFA required to produce a 10-fold reduction in HIV-1 replication” value in series [10] (TOFA alone) is listed as around 10 μg/mL; in series [10] (presence of a pharmacologically acceptable concentration of enfurtivide), below 5 μg/mL. Also, the “inhibition of HCMV replication” value in series [4] (5 μg/ml) was above 500 fold. Besides, the “reduction of the TOFA concentration required to reduce viral growth and/or replication by 10-fold” value in series [11] is at least 2 fold. Further, the “inhibition of release of infectious HCV particles” value in series [12] (5 μg/ml) is above 500 fold; in [12] (10 μg/ml), above 1000 fold.
As for `O=C(Nc1ccc(C(F)(F)F)cc1)N1C2CCC1CC(S(=O)(=O)c1ccccc1)C2` (stereo not drawn) [endo-1k], the “HCMV late pUL99 expression, in words” value in series [2] is reported as “dramatically reduced”. For the same compound, the “toxicity on the cells” value in series [13] is given as “Without inducing any toxicity”. Besides, the IC50 in series [14] was around 78 nM. Further, in series [4] (50 μM), the “inhibition of HCMV replication” value was around 400 fold.
